Results reported in US9745339B2 (GRAFFINITY PHARMACEUTICALS GMBH, priority 2012, dated 2017).

How the values were obtained:
[1] = Alkaline stability of ligands in 0.5 M sodium hydroxide; format: physicochemical; details: 25° C., 8 days, hydrolysis monitored by LC-MS, read-out: t0.5 (half-life) (converted)
Method: A subset of ligands from Example 1 was tested for its alkaline stability. Ligands were treated with 0.5 M sodium hydroxide at 25° C. for 8 days. Hydrolysis was monitored by LC-MS analysis.

Bevacizumab [2] = target: T1, Bevacizumab (Homo sapiens, UniProt P01857); experiment: Microtiter plate chromatography of resins: binding and elution of Bevacizumab; details: for Bevacizumab Bound: fraction of injected protein bound, 0.5 mg/ml IgG in PBS pH 7.3, ligand immobilized on SEPHAROSE 4 FF; for Bevacizumab Yield: mass eluted (glycine pH 2.5) / mass injected
T1 construct: 0.5 mg/ml IgG in PBS pH 7.3; ligand immobilized on SEPHAR; Bevacizumab Yield; other: mass eluted (glycine pH 2.5) / mass injected; kd (dissociation constant, Langmuir isotherm); other: Bevacizumab 0.05-5 mg/ml in PBS pH 7.3, 25° C., at least 3 h; qm (maximum capacity); other: mg Bevacizumab per ml of resin; Langmuir isotherm; t0; fused on or other part: Humanized anti-VEGF-A VH domain joined N-terminally to the IGHG1 constant region (engineered, no UniProt entry)
In short: (§1)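 About 30 μl packed resin columns loaded with 3.3 cv IgG at 0.5 mg ml^−1 in PBS or undiluted HCP, washed with 5 cv PBS, eluted with 5 cv glycine pH 2.5. Protein in fractions by Bradford. Bound fraction = (injected − flowthrough)/injected; yield = eluted/injected; selectivity = Bevacizumab bound fraction / HCP bound fraction, truncated beyond 10.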

host cell proteins (HCP) = experiment: Microtiter plate chromatography of resins: binding of host cell proteins; set-up: species or system CHO cell culture; details: fraction of injected undiluted host cell proteins bound
In short: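 Undiluted HCP-containing flowthrough from protein A chromatography of CHO serum-free culture was loaded onto ~30 µl packed resin columns in microtiter-plate format. Columns were washed with 5 cv PBS and eluted with glycine pH 2.5, and fractions were quantified by Bradford. Bound fraction = (injected − flowthrough mass)/injected mass.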

Bevacizumab [3] = target: T1, Bevacizumab; experiment: Langmuir isotherms by batch adsorption; format: binding; details: for Kd: Bevacizumab 0.05-5 mg/ml in PBS pH 7.3, 25° C., at least 3 h, read-out: kd (dissociation constant, Langmuir isotherm) (converted); for qm (maximum capacity): mg Bevacizumab per ml of resin, Langmuir isotherm
Method: Experiments were performed with Bevacizumab as antibody. Parameters of Langmuir isotherms for purified antibody were determined by batch adsorption experiments in 96-well microtiter plates. In each well, 10 μl of sorbent slurry (50% v/v) were mixed with 100 μl of protein solution. Initial concentrations varied from 0.05-5 mg/ml in phosphate-buffered saline (0.15 M NaCl, 20 mM phosphate buffer, pH 7.3; PBS). Reactions were agitated vigorously at 25° C. for at least 3 h. Afterwards, antibody concentration in the supernatants were measured by Bradford assay. Data was evaluated by direct fitting of the values with the Langmuir isotherm equation (1).
Parameters of Langmuir isotherms, i.e. dissociation constants Kd and maximum capacities qm, were determined from the measured concentrations in the supernatants. Parameters were estimated by numerical fitting of the model equation derived by Chase (1)

Palivizumab = experiment: Microtiter plate chromatography of resins: binding and elution of Palivizumab; details: fraction of injected protein bound; 0.5 mg/ml IgG in PBS pH 7.3
In short: (§2)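 About 30 μl resin columns loaded with 3.3 cv IgG at 0.5 mg ml^−1 in PBS (or undiluted HCP), washed with 5 cv PBS, eluted with 5 cv glycine pH 2.5. Fractions quantified by Bradford; bound fraction = (mi−mft)/mi, yield = me/mi.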

Tocilizumab = experiment: Microtiter plate chromatography of resins: binding and elution of Tocilizumab; details: fraction of injected protein bound; 0.5 mg/ml IgG in PBS pH 7.3
In short: as §2

Cetuximab = experiment: Microtiter plate chromatography of resins: binding and elution of Cetuximab; details: fraction of injected protein bound; 0.5 mg/ml IgG in PBS pH 7.3
In short: as §2

[4] = tested on: poly-IgG from human serum (h-poly-IgG); experiment: Microtiter plate chromatography of resins: binding and elution of human poly-IgG; details: fraction of injected protein bound; 0.5 mg/ml IgG in PBS pH 7.3
In short: as §2

Bevacizumab [5] = target: T1, Bevacizumab; experiment: Uptake kinetics by batch adsorption (time-scale of binding); details: time after which 80% of equilibrium saturation occurred; 0.75 mg/ml Bevacizumab in PBS, 25° C.
Method: Uptake kinetics was investigated similarly by batch adsorption in 96-well filter plates. Again, 10 μl of sorbent slurry (50% v/v) were mixed with 100 μl of protein solution. […] Reactions were agitated vigorously at 25° C. for up to 80 min. Supernatants were separated rapidly by spinning through filters after 2.5, 5, 10, 20, 40 and 80 minutes and sampled for analysis. Concentrations of the antibody were analyzed by Bradford assay.
For determination of t0.8, measured concentrations in the supernatant were interpolated by fitting of double-exponentials and values of t0.8 were read out from graphs (2).

Bevacizumab [6] = experiment: Microtiter plate chromatography of resins: binding and elution of Bevacizumab; details: fraction of bound Bevacizumab divided by fraction of bound HCP; truncated for values beyond 10
In short: as §1

Compound | half-life [1] | Bevacizumab Bound (Bevacizumab [2]) | Bevacizumab Yield (Bevacizumab [2]) | HCP Bound (host cell proteins (HCP)) | Kd (Bevacizumab [3]) | qm (maximum capacity) (Bevacizumab [3]) | Palivizumab Bound (Palivizumab) | Tocilizumab Bound (Tocilizumab) | Cetuximab Bound (Cetuximab) | h-poly-IgG Bound [4] | t0.8 (time-scale of binding) (Bevacizumab [5]) | Selectivity (Bevacizumab [6])
Cn1nc(NC(=O)c2ccc3c(c2)ncn3CCCN)c2ccccc21 [Ligand L02, 1-(3-Amino-1-propyl)benzimidazole-5-carboxylic acid N-(1-methyl-3-indazolyl) amide] | > 41.6 days | 100% | 101% | 28% | 324 µM | 41 mg/mL | 91% | 100% | 100% | 100% |  | 
CCc1nc2cc(C(=O)Nc3nnc(-c4ccco4)s3)ccc2n1CCCN [Ligand L44, 1-(3-Amino-1-propyl)-2-ethylbenzimidazole-5-carboxylic acid N-[5-(2-furyl)-1,3,4-thiadiazol-2-yl] amide] | > 41.6 days | 100% | 88% | 16% | 265 µM | 53 mg/mL | 100% | 100% | 100% | 100% | 7.7 min | 
Cc1nc2cc(C(=O)Nc3nnc(-c4ccco4)s3)ccc2n1CCCN [Ligand L39, 1-(3-Amino-1-propyl)-2-methylbenzimidazole-5-carboxylic acid N-[5-(2-furyl)-1,3,4-thiadiazol-2-yl] amide] | > 41.6 days | 100% | 85% | 10% |  | 49 mg/mL | 100% | 100% | 100% | 100% | 7.8 min | 
Cc1nc2cc(C(=O)Nc3nnc(-c4ccco4)s3)ccc2n1CCOCCOCCN |  | 100% | 97% | 0% | 333 µM | 45 mg/mL | 100% | 100% | 100% | 100% | 8.9 min | 
Cc1nnc(NC(=O)c2ccc3c(c2)ncn3CCCN)s1 [Ligand L14, 1-(3-Amino-1-propyl)benzimidazole-5-carboxylic acid N-(2-methyl-1,3,4-thiadiazol-5-yl) amide] | > 41.6 days | 100% | 100% | 16% | 212 µM | 35 mg/mL | 89% | 100% | 100% | 92% |  | 
NCCOCCOCCn1cnc2cc(C(=O)Nc3nnc(-c4ccco4)s3)ccc21 |  | 100% | 99% | 4% | 85.9 µM | 37 mg/mL | 100% | 100% | 99% | 100% | 6.6 min | 
Cc1nsc(NC(=O)c2ccc3c(c2)ncn3CCCN)n1 [Ligand L36, 1-(3-Amino-1-propyl)benzimidazole-5-carboxylic acid N-(3-methyl-1,2,4-thiadiazol-5-yl) amide] | > 41.6 days | 100% | 104% | 9% | 740 µM | 35 mg/mL | 93% | 90% | 99% | 81% |  | 
NCCOCCOCCn1cnc2cc(C(=O)Nc3nc(-c4ccccn4)cs3)ccc21 |  | 100% | 103% | 13% |  | 41 mg/mL | 98% | 100% | 100% | 100% | 9.0 min | 
Cc1nc2cc(C(=O)Nc3nnc(-c4ccco4)s3)ccc2n1CCOCCOCCNC(=O)CC[C@H](N)C(=O)NCCOCCOCCn1c(C)nc2cc(C(=O)Nc3nnc(-c4ccco4)s3)ccc21 [Ligand L54] |  | 100% | 95% | 4% | 46.9 µM | 35 mg/mL | 100% | 100% | 100% | 100% | 8.4 min | 
COc1nc2cc(C(=O)Nc3nnc(-c4ccco4)s3)ccc2n1CCCN [Ligand L45, 1-(3-Amino-1-propyl)-2-methoxybenzimidazole-5-carboxylic acid N-[5-(2-furyl)-1,3,4-thiadiazol-2-yl] amide] | > 41.6 days | 100% | 93% | 15% |  |  | 100% | 100% | 100% | 100% |  | 6.7
COc1ccc(NC(=O)c2nn(CCCN)c3ccccc23)cc1C(N)=O [Ligand L04, 1-(3-Amino-1-propyl)indazole-3-carboxylic acid N-(3-carbamoyl-4-methoxyphenyl) amide] | > 41.6 days | 100% | 98% | 28% |  |  | 85% | 100% | 100% | 100% |  | 3.6
Cc1nc2cc(C(=O)Nc3nc(-c4ccncc4)cs3)ccc2n1CCCN [Ligand L51, 1-(3-Amino-1-propyl)-2-methylbenzimidazole-5-carboxylic acid N-[4-(4-pyridyl)thiazol-2-yl] amide] |  | 100% | 95% | 15% |  | 34 mg/mL | 94% | 98% | 100% | 97% | 8.8 min | 
Cn1c(CCCCCN)nc2cc(C(=O)Nc3nnc(-c4ccco4)s3)ccc21 [Ligand L31, 2-(5-Amino-1-pentyl)-1-methylbenzimidazole-5-carboxylic acid N-[5-(2-furyl)-1,3,4-thiadiazol-2-yl]amide] |  | 100% | 95% | 20% | 117 µM | 45 mg/mL | 100% | 100% | 100% | 100% | 5.3 min | 
N[C@@H](CCC(=O)NCCOCCOCCn1cnc2cc(C(=O)Nc3nnc(-c4ccco4)s3)ccc21)C(=O)NCCOCCOCCn1cnc2cc(C(=O)Nc3nnc(-c4ccco4)s3)ccc21 [Ligand L53] |  | 100% | 96% | 11% | 131 µM | 34 mg/mL | 100% | 100% | 100% | 100% | 11.8 min | 
